For one molecule, IC50 and Activity results are on record in ChEMBL document CHEMBL5331124, “Degradation of Hexokinase 2 Blocks Glycolysis and Induces GSDME-Dependent Pyroptosis to Amplify Immunogenic Cell Death for Breast Cancer Therapy” (J Med Chem, 2023).

For one assay, the system named is 786-0. In words: Antiproliferative activity against human 786-0 cells assessed as cell growth inhibition measured for 72 hrs by MTT assay. The assay is classed as functional, cell-based. The note with it: 786-0, 72 h. A general note: Formazan colour is commonly taken as a measure of viable cells.
Assay [1] deals with T1, Hexokinase-2 (Homo sapiens) (UniProt P52789).
T1 sequence (whole entry): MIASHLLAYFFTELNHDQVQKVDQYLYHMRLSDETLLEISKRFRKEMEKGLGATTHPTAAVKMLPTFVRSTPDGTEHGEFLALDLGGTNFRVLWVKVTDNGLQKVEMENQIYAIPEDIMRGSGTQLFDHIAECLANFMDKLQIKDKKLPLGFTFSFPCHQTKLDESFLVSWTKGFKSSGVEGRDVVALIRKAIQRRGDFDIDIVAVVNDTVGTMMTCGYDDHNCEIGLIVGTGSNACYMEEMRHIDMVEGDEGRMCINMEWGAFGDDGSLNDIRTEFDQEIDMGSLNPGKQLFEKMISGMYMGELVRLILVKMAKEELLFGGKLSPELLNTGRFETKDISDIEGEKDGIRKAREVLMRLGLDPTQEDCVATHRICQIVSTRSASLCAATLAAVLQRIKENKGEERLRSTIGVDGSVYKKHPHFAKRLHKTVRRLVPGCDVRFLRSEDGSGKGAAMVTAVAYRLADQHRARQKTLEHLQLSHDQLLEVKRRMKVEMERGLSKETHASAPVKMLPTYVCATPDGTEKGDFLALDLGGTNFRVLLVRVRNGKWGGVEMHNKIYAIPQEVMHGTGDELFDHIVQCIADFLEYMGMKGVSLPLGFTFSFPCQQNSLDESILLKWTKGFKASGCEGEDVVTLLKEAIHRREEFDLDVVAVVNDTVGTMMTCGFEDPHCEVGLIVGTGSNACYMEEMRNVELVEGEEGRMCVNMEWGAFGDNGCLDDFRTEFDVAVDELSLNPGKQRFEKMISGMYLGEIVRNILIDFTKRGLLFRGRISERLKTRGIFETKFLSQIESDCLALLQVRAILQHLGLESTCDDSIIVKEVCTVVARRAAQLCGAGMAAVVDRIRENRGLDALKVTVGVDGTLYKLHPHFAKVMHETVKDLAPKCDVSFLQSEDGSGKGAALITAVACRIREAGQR
Kind of assay: Induction of HK2 degradation in human MDA-MB-231 cells at 20 uM measured for 36 hrs by Western blot analysis. It counts as cell-based.

The source made the active and inactive calls. The rule behind the calls is not given here.

The term IC50 denotes the concentration that inhibits the measured activity by half. On to `O=C1CCC(N2C(=O)c3cccc(NCCCCNC(=O)c4nn(Cc5ccc(Cl)cc5Cl)c5ccccc45)c3C2=O)C(=O)N1` (configuration not stated), for which, in the assay with 786-0, the IC50 came out at 34.1 µM. In assay [1], the outcome was Active.
